Experimental data reported in patent US3966715A, “Herbicidal agents” (Bayer Aktiengesellschaft, priority 1966, dated 1976).

Tests used:
[1] = test system: Oats; assay: Post-emergence test, oats; type: in vivo; details: three weeks
Experimental: (§1) Solvent: 5 parts by weight acetone
(§2) 1 part by weight benzyloxypolyglycol ether
(§3) To produce a suitable preparation of the particular active compound, 1 part by weight of such active compound is mixed with the stated amount of solvent, the stated amount of emulsifier is then added and the resulting concentrate is thereafter diluted with water to the desired final concentration.
(§4) Test plants which have a height of about 5--15 cm. are sprayed with the preparation of the given active compound until just dew moist. After three weeks, the degree of damage to the plants is determined and characterized by the values 0-5, which have the following meaning:
(§5) The procedure of Example 2 is repeated, and the particular active compounds tested, and amounts applied, and the results obtained can be seen from the following Table 2E: […]

[2] = test system: Echinochloa; assay: Pre-emergence test, Echinochloa; type: in vivo; details: 1.25 kg/hectare, three weeks
Experimental: as §1, §2, §3
(§6) Seeds of the test plants are sown in normal soil and, after 24 hours, watered with the preparation of the given active compound. It is expedient to keep constant the amount of water per unit area. The concentration of the particular active compound in the preparation is of no importance, only the amount of active compound applied per unit area being decisive. After three weeks, the degree of damage to the test plants is determined and characterized by the values 0-5, which have the following meaning:
(§7) The procedure of Example 1 is repeated, and the particular active compounds tested, the amounts applied, and the results obtained can be seen from the following Table 1D: […]

[3] = test system: dwarf beans; assay: Defoliant test; type: in vivo; details: 0.05% active compound
Experimental: There is prepared, in the same manner as described in Example 1, an active compound preparation which contains 0.05% of
(1a") 3-methylthio-4-amino-6-phenyl-1,2,4-triazine-5-one.
A field of dwarf beans is sprayed with this preparation of the active compound so that the dwarf beans themselves are only just dripping wet.

[4] = test system: soybeans; assay: Pre-emergence selectivity, soybeans; type: in vivo
[5] = test system: Wheat; assay: Pre-emergence test, wheat; type: in vivo; details: 1.25 kg/hectare, three weeks
Experimental: as §1, §2, §3, §6, §7

[6] = test system: Wheat; assay: Post-emergence test, wheat; type: in vivo; details: 2.4 Kg/hectare, three weeks
Experimental: as §1, §2, §3, §4, §5

[7] = test system: test plants; assay: Post-emergence test, overall; type: in vivo
Experimental: as §1, §2, §3, §4, §5

[8] = test system: plants and weeds; assay: General herbicidal activity; type: in vivo; details: compared with compounds 221, 222, 223
[9] = test system: corn, potatoes, millet and peanuts; assay: Use in growing corn, potatoes, millet and peanuts; type: in vivo; details: 0.3-2 kg/hectare
[10] = test system: cotton and tomatoes; assay: Pre-emergence selectivity, cotton and tomatoes; type: in vivo; details: pre-emergence application
[11] = test system: nematoeds; assay: Nematocidal activity on the soil; type: in vivo; details: 1 Kg/hectare
[12] = test system: Alternaria; assay: Fungicidal activity; type: in vivo; details: particularly against Alternaria
[13] = Oral toxicity in rats; details: rat, in vivo, po
[14] = test system: rats; assay: Oral toxicity in rats; details: in words

## CSc1nnc(-c2ccccc2)c(=O)n1N [Compound 1a, 3-methylthio-4-amino-6-phenyl-1,2,4-triazine-5-one]
[1]; 1.2 Kg/hectare
  degree of damage, Oats: 4-5
[1]; 2.4 Kg/hectare
  degree of damage, Oats: 4-5
[2]
  degree of damage, Echinochloa: 4-5
[3]
  harvesting of the beans: quite considerably facilitated
[3]; after 8 days
  drying up of leaves: completely dried up

## CSc1nnc(C(C)(C)C)c(=O)n1N=C1CCCCC1 [Compound 221, 3-methylthio-4-(cyclohexylidene-amino)-6-tert.-butyl-1,2,4-triazine-5-one]
[4]
  selectivity: selective for soybeans
[5]
  degree of damage, Wheat: 4-5
[6]
  degree of damage, Wheat: 4-5
[7]
  general herbicidal activity: very good general herbicidal activity

## CSc1nnc(C(C)(C)C)c(=O)n1N=Cc1ccccc1 [Compound 236]
[8]
  general properties: same general properties
[9]
  effectiveness in growing crops: effective in growing corn, potatoes, millet and peanuts
[10]
  selectivity: selective as to cotton and tomatoes
[11]
  killing of nematodes: kills nematoeds
[12]
  fungicidal activity: exhibits fungicidal activity, particularly against Alternaria
[13]
  LD50: 1000 mg/kg
[14]
  toxicity: quite low
